Target: PD-1/PD-L1 protein/protein interaction (Homo sapiens (Human), UniProt Q9NZQ7)
Assay: PD-1/PD-L1 Homogeneous Time-Resolved Fluorescence (HTRF) Binding Assay
Conditions: recombinant human PD-L1 (19-238) His-tag, human PD-1 (25-167) Fc tag; 25° C., PBS pH 7.4
Method: Example A. PD-1/PD-L1 Homogeneous Time-Resolved Fluorescence (HTRF) Binding Assay
The assays were conducted in a standard black 384-well polystyrene plate with a final volume of 20 μL. Inhibitors were first serially diluted in DMSO and then added to the plate wells before the addition of other reaction components. The final concentration of DMSO in the assay was 1%. The assays were carried out at 25° C. in the PBS buffer (pH 7.4) with 0.05% Tween-20 and 0.1% BSA. Recombinant human PD-L1 protein (19-238) with a His-tag at the C-terminus was purchased from AcroBiosystems (PD1-H5229). Recombinant human PD-1 protein (25-167) with Fc tag at the C-terminus was also purchased from AcroBiosystems (PD1-H5257). PD-L1 and PD-1 proteins were diluted in the assay buffer and 10 μL was added to the plate well. Plates were centrifuged and proteins were preincubated with inhibitors for 40 minutes. The incubation was followed by the addition of 10 μL of HTRF detection buffer supplemented with Europium cryptate-labeled anti-human IgG (PerkinElmer-AD0212) specific for Fc and anti-His antibody conjugated to SureLight®-Allophycocyanin (APC, PerkinElmer-AD0059H). After centrifugation, the plate was incubated at 25° C. for 60 min. before reading on a PHERAstar FS plate reader (665 nm/620 nm ratio). Final concentrations in the assay were […], 10 nM PD-L1, 1 nM europium anti-human IgG and 20 nM anti-His-Allophycocyanin. IC50 determination was performed by fitting the curve of percent control activity versus the log of the inhibitor concentration using the GraphPad Prism 5.0 software.
Data obtained for the Example compounds using the PD-1/PD-L homogenous time-resolved fluorescence (HTRF) binding assay described in Example A is provided in Table 1.

PD-1/PD-L1 protein/protein interaction, sequence (Q9NZQ7 19-238): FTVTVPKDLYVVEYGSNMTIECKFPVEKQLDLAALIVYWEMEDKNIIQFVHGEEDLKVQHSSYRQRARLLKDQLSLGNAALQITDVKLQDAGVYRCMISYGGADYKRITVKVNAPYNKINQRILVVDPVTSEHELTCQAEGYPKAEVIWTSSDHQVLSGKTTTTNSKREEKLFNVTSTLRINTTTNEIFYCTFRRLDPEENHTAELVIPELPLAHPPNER

| Compound | IC50 [nM] |
| --- | --- |
| Cc1c(-c2ccccc2)cccc1-c1nc2c(s1)CN(C[C@@H]1C[C@H]1C(=O)O)CC2 (relative stereo) [Example 9, Trans-2-{[2-(2-methylbiphenyl-3-yl)-6,7-dihydro[1,3]thiazolo[5,4-c]pyridin-5(4H)-yl]methyl}cyclopropanecarboxylic acid] | 100 to 500 |
| Cc1c(-c2ccccc2)cccc1-c1nc2c(s1)CN(CCO)CC2 [Example 4, 2-[2-(2-methylbiphenyl-3-yl)-6,7-dihydro[1,3]thiazolo[5,4-c]pyridin-5(4H)-yl]ethanol] | ≤ 100 |
| Cc1c(-c2ccccc2)cccc1-c1nc2c(s1)CN(C1CCOCC1)CC2 [Example 6, 2-(2-methylbiphenyl-3-yl)-5-(tetrahydro-2H-pyran-4-yl)-4,5,6,7-tetrahydro[1,3]thiazolo[5,4-c]pyridine] | 100 to 500 |
| Cc1c(-c2ccccc2)cccc1-c1nc2c(s1)CN(C1CCC(C(=O)O)CC1)CC2 (stereo not shown) [Example 7, 4-[2-(2-methylbiphenyl-3-yl)-6,7-dihydro[1,3]thiazolo[5,4-c]pyridin-5(4H)-yl]cyclohexanecarboxylic acid] | ≤ 100 |
| Cc1c(-c2ccccc2)cccc1-c1nc2c(s1)CN(C1CCC(CC#N)CC1)CC2 (stereo not shown) [Example 11, {4-[2-(2-methylbiphenyl-3-yl)-6,7-dihydro[1,3]thiazolo[5,4-c]pyridin-5(4H)-yl]cyclohexyl}acetonitrile] | 100 to 500 |
| Cc1c(-c2ccccc2)cccc1-c1cc2n(n1)CCNC2 [Example 12, 2-(2-methylbiphenyl-3-yl)-4,5,6,7-tetrahydropyrazolo[1,5-a]pyrazine] | 100 to 500 |
| Cc1c(-c2ccccc2)cccc1-n1cc2c(n1)CCNC2 [Example 17, 2-(2-methylbiphenyl-3-yl)-4,5,6,7-tetrahydro-2H-pyrazolo[4,3-c]pyridine] | 100 to 500 |
| Cc1c(-c2ccccc2)cccc1-n1cc2c(n1)CNCC2 [Example 18, 2-(2-methylbiphenyl-3-yl)-4,5,6,7-tetrahydro-2H-pyrazolo[3,4-c]pyridine] | ≤ 100 |
| Cc1c(-c2ccccc2)cccc1-c1nc2n(n1)CCNC2 [Example 25, 2-(2-methylbiphenyl-3-yl)-5,6,7,8-tetrahydro[1,2,4]triazolo[1,5-a]pyrazine] | 100 to 500 |
| Cc1c(-c2ccsc2)cccc1-c1nc2c(s1)CNCC2 [Example 27, 2-[2-methyl-3-(3-thienyl)phenyl]-4,5,6,7-tetrahydro[1,3]thiazolo[5,4-c]pyridine] | 100 to 500 |
| COc1cccc(-c2cccc(-c3nc4c(s3)CNCC4)c2C)c1 [Example 28, 2-(3′-methoxy-2-methylbiphenyl-3-yl)-4,5,6,7-tetrahydro[1,3]thiazolo[5,4-c]pyridine] | ≤ 100 |
| Cc1c(C2=CCOCC2)cccc1-c1nc2c(s1)CNCC2 [Example 29, 2-[3-(3,6-dihydro-2H-pyran-4-yl)-2-methylphenyl]-4,5,6,7-tetrahydro[1,3]thiazolo[5,4-c]pyridine] | 500 to 10000 |
| Cc1c(-c2ccc(F)cn2)cccc1-c1nc2c(s1)CNCC2 [Example 31, 2-[3-(5-fluoropyridin-2-yl)-2-methylphenyl]-4,5,6,7-tetrahydro[1,3]thiazolo[5,4-c]pyridine] | 500 to 10000 |

The remaining lines, values ahead:

| IC50 [nM] | Compound |
| --- | --- |
| 500 to 10000 | Cc1c(-c2ccccc2)cccc1-c1nc2c(s1)CCNC2 [Example 1, 2-(2-methylbiphenyl-3-yl)-4,5,6,7-tetrahydro[1,3]thiazolo[4,5-c]pyridine] |
| ≤ 100 | Cc1c(-c2ccccc2)cccc1-c1nc2c(s1)CNCC2 [Example 2, 2-(2-methylbiphenyl-3-yl)-4,5,6,7-tetrahydro[1,3]thiazolo[5,4-c]pyridine] |
| ≤ 100 | Cc1c(-c2ccccc2)cccc1-c1nc2c(s1)CN(C)CC2 [Example 3, 5-methyl-2-(2-methylbiphenyl-3-yl)-4,5,6,7-tetrahydro[1,3]thiazolo[5,4-c]pyridine] |
| ≤ 100 | Cc1c(-c2ccccc2)cccc1-c1nc2c(s1)CN(C[C@H](C)O)CC2 [Example 5, (2S)-1-[2-(2-methylbiphenyl-3-yl)-6,7-dihydro[1,3]thiazolo[5,4-c]pyridin-5(4H)-yl]propan-2-ol] |
| ≤ 100 | Cc1c(-c2ccccc2)cccc1-c1nc2c(s1)CN(CCCC(=O)O)CC2 [Example 8, 4-[2-(2-methylbiphenyl-3-yl)-6,7-dihydro[1,3]thiazolo[5,4-c]pyridin-5(4H)-yl]butanoic acid] |
| 100 to 500 | Cc1c(-c2ccccc2)cccc1-c1nc2c(s1)CN(Cc1cn[nH]c1)CC2 [Example 10, 2-(2-methylbiphenyl-3-yl)-5-(1H-pyrazol-4-ylmethyl)-4,5,6,7-tetrahydro[1,3]thiazolo[5,4-c]pyridine] |
| ≤ 100 | N#Cc1c(-c2ccc3c(c2)OCCO3)cccc1-c1nc2c(s1)CNCC2 [Example 13, 2-(2,3-dihydro-1,4-benzodioxin-6-yl)-6-(4,5,6,7-tetrahydro[1,3]thiazolo[5,4-c]pyridin-2-yl)benzonitrile] |
| ≤ 100 | Cc1c(-c2ccccc2)ccnc1-c1nc2c(s1)CNCC2 [Example 14, 2-(3-methyl-4-phenylpyridin-2-yl)-4,5,6,7-tetrahydro[1,3]thiazolo[5,4-c]pyridine] |
| ≤ 100 | COc1cccc(-c2ccnc(-c3nc4c(s3)CNCC4)c2C)c1 [Example 15, 2-[4-(3-methoxyphenyl)-3-methylpyridin-2-yl]-4,5,6,7-tetrahydro[1,3]thiazolo[5,4-c]pyridine] |
| ≤ 100 | Cc1c(-c2ccc3c(c2)OCCO3)ccnc1-c1nc2c(s1)CNCC2 [Example 16, 2-[4-(2,3-dihydro-1,4-benzodioxin-6-yl)-3-methylpyridin-2-yl]-4,5,6,7-tetrahydro[1,3]thiazolo[5,4-c]pyridine] |
| 500 to 10000 | Cc1c(-c2ccccc2)cccc1-c1nc2c(s1)CNCC2(C)C [Example 19, 7,7-dimethyl-2-(2-methylbiphenyl-3-yl)-4,5,6,7-tetrahydro[1,3]thiazolo[5,4-c]pyridine] |
| 500 to 10000 | Cc1c(-c2ccccc2)cccc1-c1cn2c(n1)CNCC2 [Example 20, 2-(2-methylbiphenyl-3-yl)-5,6,7,8-tetrahydroimidazo[1,2-a]pyrazine] |
| 500 to 10000 | Cc1c(-c2ccccc2)cccc1-c1nc2c([nH]1)CCNC2 [Example 21, 2-(2-methylbiphenyl-3-yl)-4,5,6,7-tetrahydro-1H-imidazo[4,5-c]pyridine] |
| ≤ 100 | Cc1c(-c2ccccc2)cccc1-c1nc2c(o1)CNCC2 [Example 22, 2-(2-methylbiphenyl-3-yl)-4,5,6,7-tetrahydro[1,3]oxazolo[5,4-c]pyridine] |
| ≤ 100 | Cc1c(-c2ccccc2)cccc1-c1nc2c(o1)CCNC2 [Example 23, 2-(2-methylbiphenyl-3-yl)-4,5,6,7-tetrahydro[1,3]oxazolo[4,5-c]pyridine] |
| ≤ 100 | Cc1c(-c2ccccc2)cccc1-c1nc2c(o1)CCN(C)C2 [Example 24, 5-methyl-2-(2-methylbiphenyl-3-yl)-4,5,6,7-tetrahydro[1,3]oxazolo[4,5-c]pyridine] |
| 500 to 10000 | Cc1c(-c2nc3c(s2)CNCC3)ccnc1-c1ccc2c(c1)OCCO2 [Example 26, 2-[2-(2,3-dihydro-1,4-benzodioxin-6-yl)-3-methylpyridin-4-yl]-4,5,6,7-tetrahydro[1,3]thiazolo[5,4-c]pyridine] |
| 100 to 500 | COc1cc(-c2cccc(-c3nc4c(s3)CNCC4)c2C)ccn1 [Example 30, 2-[3-(2-methoxypyridin-4-yl)-2-methylphenyl]-4,5,6,7-tetrahydro[1,3]thiazolo[5,4-c]pyridine] |

Reference: patent US11608337B2, “Heterocyclic compounds as immunomodulators” (Incyte Corporation, priority 2016, dated 2023)
